From patent US20120021044A1, “Novel Cationic Lipid, A Preparation Method of the Same and A Delivery System Comprising the Same” (SNU R&DB FOUNDATION, priority 2007, published 2012)

System: Bcl2 transcript in SiHa cells
Experiment: Bcl2 transcript expression by RT-PCR after delivery of Bcl2 antisense oligonucleotide into SiHa cells
Assay type: cell-based, human
Conditions: Bcl2 antisense oligonucleotide 100 nM, 24 hours, FIG. 8
Method: On the day prior to the experiment, SiHa cells were seeded on 24-well plates at a density of 8×10^4 cells/well. […] The antisense oligonucleotide to induce the inhibition of expression of the Bcl2 gene (Genbank accession number: […] These materials were slowly pipetted, mixed and allowed to stand at room temperature for 20 min, thus resulting in formation of complexes. The thus-prepared complexes were added to the well plates, followed by cell culture in a CO2 incubator at 37° C. for 24 hours. After 24 hours, total RNA was isolated from the cultured cells using a Trizol reagent (Invitrogen, Carlsbad, Calif., USA) and then reverse-transcribed into cDNA using AccuPower RT PreMix (Bioneer, Daejeon, Korea). […] An expression level of the Bcl2 transcript was assayed by determining quantitative changes of the gene expression through normalization of a band density of the Bcl2-specific PCR product against a band density occurring by amplification of the GAPDH (glyceraldehyde-3-phosphate dehydrogenase) gene.

antisense oligonucleotide-alone: Bcl2 antisense oligonucleotide 5'-TCT CCC AGC GTG CGC CAT-3' (Bioneer), given without delivery system (antisense TCTCCCAGCGTGCGCCAT; chemistry not given here)
amount of the Bcl2 transcript (RT-PCR, normalized against GAPDH): no changes in an amount of the Bcl2 transcript
